Data as given in US4963570A, “1-(acetylaminophenyl)-2-aminopropanone derivatives and pharmaceutical compositions thereof” (Laboratoire L. Lafon, priority 1983, dated 1990).
Entries after “also recorded” stand apart in the source; their conditions may differ. Where a name gives a salt, the structure may show the parent alone.

Columns and labels:
LEWIS' carcinoma = LEWIS' carcinoma in mice; format: in vivo, mouse; conditions: mice
Experimental: a. animals: consanguineous female mice (C57 BL6), b. infecting cells: 10^5 cells injected subcutaneously into the back of the animals, c. monitoring of the tumor growth by measurement of the tumor twice a week, d. evaluation of the pulmonary metastases after fixation of the lungs of the dead animals in BOUIN's fixative.
Using the same procedures, the association of CRL 41 220 with 150 mg/kg of cyclophosphamide gives the results collated in Table II below.

mice [1] = test: interaction with reserpine; format: in vivo, mouse; conditions: i.p.; dose not stated
Experimental: Four hours after the intraperitoneal injection of 2.5 mg/kg of reserpine, groups of 6 mice receive CRL 41 224.

mice [2] = test: interaction with oxotremorine; format: in vivo, mouse; conditions: i.p.; dose not stated
Experimental: CRL 41 224 is administered to groups of 6 mice 0.5 hour before the intraperitoneal injection of 0.5 mg/kg of oxotremorine.

mice [3] = test: four plate test, traction and electric shock; format: in vivo, mouse; conditions: i.p., dose not stated
Experimental: The test is performed on groups of 10 mice 30 minutes after the administration of CRL 41 224.

mice [4] = test: action on the behavioral despair; format: in vivo, mouse; conditions: i.p., dose not stated
Excerpt: Half an hour after they have received CRL 41 224, groups of 6 mice are placed in a beaker filled with water to a height of 6 cm. The total period of immobility between the 2nd and 6th minutes following immersion is noted.

rats [5] = test: overall behavior and reactivities in rats; format: in vivo, rat; conditions: i.p., dose not stated
Experimental: (§1) Groups of three animals are observed before and then 0.25 hour, 0.50 hour, 1 hour, 2 hours, 3 hours and 24 hours after the administration of CRL 41 224.

mice [6] = test: overall behavior and reactivities in mice; format: in vivo, mouse; conditions: mice, i.p.; dose not stated
Experimental: as §1

mice [7] = test: action on the spontaneous motility (actimeter); format: in vivo, mouse; conditions: mice, i.p.; dose not stated
Experimental: 0.5 hour after they have received CRL 41 224, the mice (6 per dose, 12 control animals) are placed in an actimeter, where their motility is recorded for 30 minutes.

mice [8] = test: interaction with barbital; format: in vivo, mouse; conditions: i.p.; dose not stated
Experimental: Half an hour after the administration of CRL 41 224, groups of 10 mice receive an intraperitoneal injection of barbital (220 mg/kg).

mice [9] = test: interaction with apomorphine in mice; format: in vivo, mouse; conditions: i.p.; dose not stated
Experimental: Groups of 6 mice receive CRL 41 224 0.5 hour before the subcutaneous injection of 1 or 16 mg/kg of apomorphine.

rats [10] = test: action on stereotypies in rats (α-methyltyrosine, haloperidol, reserpine); conditions: i.p.
CNS = test: overall neuropsychopharmacological (CNS) profile; format: in vivo, mouse; rat; conditions: i.p., mice and rats, dose not stated
Experimental: The neuropsychopharmacological study of CRL 41 219 was carried out as indicated above for CRL 41 224.
The neuropsychopharmacological study of CRL 41 220 was carried out in accordance with the procedures given above for CRL 41 224.

rats [11] = test: interaction with apomorphine in rats; format: in vivo, rat; conditions: i.p., dose not stated
Experimental: CRL 41 224 is administered to groups of 6 rats 0.5 hour before the subcutaneous injection of 0.5 mg/kg of apomorphine.

mice [12] = test: motility reduced by hypoxic aggression; format: in vivo, mouse; conditions: i.p., dose not stated
Experimental: Half an hour after they have received CRL 41 224, the mice (10 per dose, 20 control animals) are subjected to acute hypobaric anoxia [pressure reduction of 600 mm Hg (i.e. about 8×10^4 Pa) in 90 seconds; release of vacuum in 45 seconds] and are then placed in an actimeter, where their motility is recorded for 10 minutes.

[13] = system: peripheral α-adrenergic stimulation; test: signs of peripheral adrenergic stimulation; format: in vivo, mouse; rat; conditions: i.p.; dose not stated
Experimental: as §1

rats [14] = test: interaction with amphetamine; format: in vivo, rat; conditions: rats, i.p.; dose not stated
Experimental: Amphetamine (2 mg/kg) is injected intraperitoneally into groups of 6 rats 30 minutes after the administration of CRL 41 224.

mice [15] = test: motility reduced by habituation to the enclosure; format: in vivo, mouse; conditions: i.p., dose not stated
Experimental: After they have stayed in the actimeters for 18 hours, the mice (6 per dose, 12 control animals) receive CRL 41 224. They are immediately returned to their respective enclosures and, half an hour later, their motility is recorded for 30 minutes.

male mice [16] = test: influence of catecholamines on hyperactivity in mice; format: in vivo, mouse; conditions: I.V.C., 10 μg
Experimental: A further series of assays was carried out on mice according to the teaching of S. L. HANDLEY et al. "Influences of catecholamines on dexamphetamine, induced changes in locomotor activity", Psychopharmacology 58, 283-288 (1978), in order to observe a potential influence of dopamine or moradrenaline on the hyperactivity induced by CRL 41 152.
After a habituation period of 1.5 h to the actimeters, male mice (grouped into batches of 10 animals each and a control batch of 20 animals) were administered (under slight anesthesia with ether) per intraventriculocerebral injection (i.e. I.V.C. route) with (i) either 10 μg of noradrenaline, or 10 μg of dopamine or 10 μl (0.5 μl/second) of saline solution, then (ii) 5 minutes later, with CRL 41 152 (in solution in distilled water) per I.P. route in a volume of 20 ml/kg, immediately before replacing the mice in the actimeters vherein their motility was recorded for 1 hour by measuring the number of crossed rays per period of 5 minutes).
Batches receiving CRL 41 152 per I.P. route with noradreanaline or dopamine per I.V.C. route were compared with (i) the control batch receiving the saline solution per I.V.C. route then distilled water per I.P. route, and (ii) batches receiving only noradrenaline, dopamine (per I.V.C. route) or CRL 41 152 (per I.P. route).

dogs = test: cardiovascular action in anesthetized dogs; format: in vivo, dog; conditions: control dogs
Experimental: Four dogs (average weight: 13.8 kg), anesthetized with nembutal, receive CRL 41 220 by intraduodenal administration at successive doses of 0.1 mg/kg, 0.5 mg/kg, 1 mg/kg, 2.5 mg/kg, 5 mg/kg and 10 mg/kg. The blood pressure, the heart beat, the flow rate through the femoral artery, the flow rate through the vertebral artery and the rectal and/or skin temperature are measured and the coloration of the skin and the bile (collected by catheterization of the bile duct after ligature of the cystic duct) is observed.

male mice [17] = test: acute toxicity, intraperitoneal (lethal doses); format: in vivo, mouse; conditions: i.p.
Experimental: By intraperitoneal administration to male mice, the LD-30 (lethal dose for 30% of the animals tested) is of the order of 128 mg/kg and the LD-50 is of the order of about 200 mg/kg.

Compound | hypothermia induced by reserpine (mice [1]) | ptosis induced by reserpine (mice [1]) | hypothermia induced by oxotremorine (mice [2]) | period of immobility or "despair" (mice [4]) | excitation in mice (mice [6]) | spontaneous motility / motor activity (mice [7]) | hypothermia induced by apomorphine (mice [9]) | stereotypies induced by apomorphine (rats [11]) | motor recovery after hypoxic aggression (mice [12]) | mydriasis [13] | peripheral adrenergic stimulation, overall [13] | stereotypies induced by amphetamine (rats [14]) | motor activity after habituation to the enclosure (mice [15]) | also measured
O=P1(N(CCCl)CCCl)NCCCO1 (stereo not drawn) [cyclophosphamide, reference compound] | – | – | – | – | – | – | – | – | – | – | – | – | – | development of tumors (LEWIS' carcinoma; 100 mg/kg): slightly slows down the development of tumors; number of pulmonary metastases (LEWIS' carcinoma; 100 mg/kg): reduces the number of pulmonary metastases; survival of the animals treated (LEWIS' carcinoma; 100 mg/kg): without however improving the survival of the animals treated; effect on process initiated by the administration of infecting cells (LEWIS' carcinoma; 150 mg/kg): distinctly opposes the process initiated by the administration of infecting cells; survival (LEWIS' carcinoma; 150 mg/kg): 2 out of 6
CC(=O)Nc1ccc(C(=O)C(C)NC(C)C)cc1Cl (stereo not drawn) [CRL 41 192, 1-(4-acetylamino-3-chlorophenyl)-2-isopropylaminopropanone hydrochloride] | antagonism of the hypothermia induced by apomorphine, oxotremorine or reserpine | antagonism of the ptosis induced by reserpine | antagonism of the hypothermia induced by apomorphine, oxotremorine | a reduction in the immobility | excitation with hyperreactivity in mice | an increase in the spontaneous motility in mice | antagonism of the hypothermia induced by apomorphine | potentiation of the stereotypies induced by apomorphine | an improvement in the motor recovery in mice after acute hypoxia | mydriasis | effects which may reflect peripheral adrenergic stimulation | potentiation of the stereotypies induced by apomorphine or amphetamine | a resumption in the motor activity of mice accustomed to their enclosure | trembling caused by oxotremorine (mice [2]): antagonism of the trembling caused by oxotremorine; convulsant effects of electric shock (mice [3]): anticonvulsant effects; stereotype movements in rats (rats [5]): stereotype movements in rats; sleep induced by barbital (mice [8]): antagonism of the sleep induced by barbital; suppression of induced stereotype movements by prior injection of alpha-methyltyrosine (rats [10]): not suppressed; overall action on the CNS (CNS; hydrochloride): stimulant effects; also recorded: antidepressant effects; exophthalmos [13]: absent; salivation [13]: absent
NC[C@H](O)c1ccc(O)c(O)c1 [noradrenaline, reference compound] | – | – | – | – | – | – | – | – | – | – | – | – | – | locomotor effect by comparison with saline (male mice [16]): did not cause any visible locomotor effect; systolic blood pressure with 2 μg/kg of noradrenaline, control animals (dogs; noradrenaline alone): 323 mm Hg
CC(=O)Nc1ccc(C(=O)C(C)N2CCOCC2)cc1 (stereo not drawn) [CRL 41 236] | antagonism of the hypothermia induced by apomorphine, reserpine | antagonism of the ptosis induced by reserpine | antagonism of the hypothermia induced by apomorphine, reserpine and oxotremorine | reduction in the immobility | excitation with hyperreactivity | increase in the spontaneous motility | antagonism of the hypothermia induced by apomorphine | potentiation of the stereotypies induced by apomorphine | improvement in the motor recovery after hypoxic aggression | mydriasis | peripheral α-adrenergic stimulation | potentiation of the stereotypies induced by apomorphine and amphetamine | increase in the spontaneous motility and in the motor activity after habituation to the enclosure | LD-0 (maximum non-lethal dose) (male mice [17]): greater than 256 mg/kg; LD-30 (male mice [17]): about 500 mg/kg; lethal effects of electric shock (mice [3]): seems to aggravate the lethal effects of electric shock; number of punished passes in the 4 plate test (mice [3]; mice): moderate increase in the number of punished passes; stereotype movements in mice (mice [6]): without the presence of stereotype movements; sleep induced by barbital (mice [8]): antagonism of the sleep induced by barbital; overall action on the CNS (CNS): behaves as an antidepressant having stimulant and arousing properties
NCCc1ccc(O)c(O)c1 [dopamine, reference compound] | – | – | – | – | – | – | – | – | – | – | – | – | – | locomotor effect by comparison with saline (male mice [16]): did not cause any visible locomotor effect
CC(C)NCC(O)c1ccc(O)c(O)c1 (stereo not drawn) [isoprenaline, reference compound] | – | – | – | – | – | – | – | – | – | – | – | – | – | heart beat with 10 μg/kg of isoprenaline, control animals (dogs; isoprenaline alone): 280 beats/minute
CC(=O)Nc1ccc(C(=O)C(C)N(C)C)cc1 (stereo not drawn) [CRL 41 232] | antagonism of the hypothermia induced by apomorphine, reserpine | antagonism of the ptosis induced by reserpine | antagonism of the hypothermia induced by apomorphine, reserpine and oxotremorine | reduction in the period of immobility | excitation in mice | increase in the motor activity | antagonism of the hypothermia induced by apomorphine | potentiation of the stereotypies induced by apomorphine | improvement in the motor recovery | mydriasis | peripheral α-adrenergic stimulation | potentiation of the stereotypies induced by apomorphine and amphetamine | distinct resumption in the motor activity of mice accustomed to their enclosure | LD-0 (maximum non-lethal dose) (male mice [17]): greater than 128 mg/kg; LD-30 (male mice [17]): about 250 mg/kg; stereotype movements in rats (rats [5]): presence of stereotype movements in mice and rats; stereotype movements in mice (mice [6]): presence of stereotype movements in mice; overall action on the CNS (CNS): behaves overall as a stimulant and antidepressant for the CNS; exophthalmos [13]: exophthalmos
